Data as given in ChEMBL document CHEMBL1909046, “DrugMatrix in vitro pharmacology data”.

Tests used:
[1] = target: T1, Receptor-type tyrosine-protein phosphatase C (Homo sapiens, UniProt P08575); set-up: species or system Escherichia coli;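 note: inhibition of CD45 enzyme activity measured using DiFMUP as substrate; in other assays of this panel Not Active means under 50% inhibition at 10 µM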
T1 sequence (P08575 whole entry): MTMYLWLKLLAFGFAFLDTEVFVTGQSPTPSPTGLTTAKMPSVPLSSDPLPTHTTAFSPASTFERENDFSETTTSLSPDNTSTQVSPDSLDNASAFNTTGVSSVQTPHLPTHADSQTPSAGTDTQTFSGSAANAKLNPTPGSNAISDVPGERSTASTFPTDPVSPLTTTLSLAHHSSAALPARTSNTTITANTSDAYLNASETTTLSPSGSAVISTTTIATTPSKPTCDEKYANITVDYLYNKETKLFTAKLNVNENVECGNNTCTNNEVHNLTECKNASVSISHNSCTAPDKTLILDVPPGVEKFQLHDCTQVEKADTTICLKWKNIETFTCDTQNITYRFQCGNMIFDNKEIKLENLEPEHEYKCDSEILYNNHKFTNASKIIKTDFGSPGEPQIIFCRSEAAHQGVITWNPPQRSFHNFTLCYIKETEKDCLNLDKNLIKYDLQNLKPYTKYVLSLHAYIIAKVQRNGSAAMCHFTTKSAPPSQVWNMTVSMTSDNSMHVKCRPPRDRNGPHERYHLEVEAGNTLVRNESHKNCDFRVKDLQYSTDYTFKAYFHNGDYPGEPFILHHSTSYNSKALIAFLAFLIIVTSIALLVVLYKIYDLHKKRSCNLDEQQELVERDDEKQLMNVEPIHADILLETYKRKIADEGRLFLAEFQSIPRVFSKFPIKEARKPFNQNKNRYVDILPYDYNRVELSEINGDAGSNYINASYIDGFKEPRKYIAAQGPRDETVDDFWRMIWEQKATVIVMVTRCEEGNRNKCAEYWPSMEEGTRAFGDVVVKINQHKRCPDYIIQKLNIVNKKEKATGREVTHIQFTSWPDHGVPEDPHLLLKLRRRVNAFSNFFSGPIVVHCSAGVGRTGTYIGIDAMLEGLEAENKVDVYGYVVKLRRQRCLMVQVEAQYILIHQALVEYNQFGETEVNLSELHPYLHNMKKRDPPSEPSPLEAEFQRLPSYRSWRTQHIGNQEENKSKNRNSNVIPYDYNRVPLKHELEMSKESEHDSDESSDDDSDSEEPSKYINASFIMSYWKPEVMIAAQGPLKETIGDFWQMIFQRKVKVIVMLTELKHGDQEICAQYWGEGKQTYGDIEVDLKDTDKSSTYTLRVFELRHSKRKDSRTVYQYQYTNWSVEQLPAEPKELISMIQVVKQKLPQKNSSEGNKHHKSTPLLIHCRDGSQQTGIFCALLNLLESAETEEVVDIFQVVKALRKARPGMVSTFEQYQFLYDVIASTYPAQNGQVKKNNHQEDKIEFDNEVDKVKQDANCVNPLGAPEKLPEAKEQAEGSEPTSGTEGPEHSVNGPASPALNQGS

[2] = DRUGMATRIX: Calcium Channel Type L, Dihydropyridine radioligand binding (ligand: [3H] Nitrendipine); assay type: cell membranes, Rattus norvegicus, Wistar, Cerebral cortex, Membrane; settings: Not Active = under 50% inhibition at 10 µM
[3] = DRUGMATRIX: ATPase, Na+/K+ enzyme inhibition (substrate: ATP); assay type: tissue-based, Sus scrofa, Heart; settings: Not Active = under 50% inhibition at 10 µM
[4] = target: T2, Estrogen receptor (Homo sapiens, UniProt P03372); settings: sf9; note: in other assays of this panel Not Active means under 50% inhibition at 10 µM
T2 sequence (P03372 whole entry): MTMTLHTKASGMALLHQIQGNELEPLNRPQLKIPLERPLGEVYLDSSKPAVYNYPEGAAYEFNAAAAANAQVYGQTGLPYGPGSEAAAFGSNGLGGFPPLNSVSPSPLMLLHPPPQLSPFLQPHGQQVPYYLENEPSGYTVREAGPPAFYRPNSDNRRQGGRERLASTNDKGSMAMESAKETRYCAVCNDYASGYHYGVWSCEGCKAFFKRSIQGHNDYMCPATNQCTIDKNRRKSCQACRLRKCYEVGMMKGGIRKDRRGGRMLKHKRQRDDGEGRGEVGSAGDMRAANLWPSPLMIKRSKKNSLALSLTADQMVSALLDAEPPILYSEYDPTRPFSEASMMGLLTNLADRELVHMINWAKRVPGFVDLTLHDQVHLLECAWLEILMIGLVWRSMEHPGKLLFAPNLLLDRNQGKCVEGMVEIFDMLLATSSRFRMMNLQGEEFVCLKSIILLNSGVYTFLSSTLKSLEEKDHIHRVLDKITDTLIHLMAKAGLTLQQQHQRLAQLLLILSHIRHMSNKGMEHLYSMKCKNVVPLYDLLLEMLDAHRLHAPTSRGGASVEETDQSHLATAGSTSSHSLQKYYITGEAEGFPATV

[5] = target: T3, Muscarinic acetylcholine receptor M2 (Homo sapiens, UniProt P08172); assay type: cell membranes, CHO-K1, Membrane; settings: cho-k1; note: in other assays of this panel Not Active means under 50% inhibition at 10 µM
T3 sequence (P08172 whole entry): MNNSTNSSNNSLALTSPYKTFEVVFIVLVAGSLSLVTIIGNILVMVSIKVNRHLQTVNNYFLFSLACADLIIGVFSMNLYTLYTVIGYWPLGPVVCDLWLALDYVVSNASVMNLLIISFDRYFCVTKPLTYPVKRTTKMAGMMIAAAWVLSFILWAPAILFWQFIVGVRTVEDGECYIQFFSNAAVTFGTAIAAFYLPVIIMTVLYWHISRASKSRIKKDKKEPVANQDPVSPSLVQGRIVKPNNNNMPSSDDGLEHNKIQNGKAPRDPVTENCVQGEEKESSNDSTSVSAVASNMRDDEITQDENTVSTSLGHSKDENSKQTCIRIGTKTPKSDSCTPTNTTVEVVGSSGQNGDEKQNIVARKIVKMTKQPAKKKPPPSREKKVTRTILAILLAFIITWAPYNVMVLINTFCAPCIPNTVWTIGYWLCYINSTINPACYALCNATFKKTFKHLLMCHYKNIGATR

[6] = target: T4, Substance-K receptor (Homo sapiens, UniProt P21452); assay type: cell membranes, CHO, Membrane; note: in other assays of this panel Not Active means under 50% inhibition at 10 µM
T4 sequence (P21452 whole entry): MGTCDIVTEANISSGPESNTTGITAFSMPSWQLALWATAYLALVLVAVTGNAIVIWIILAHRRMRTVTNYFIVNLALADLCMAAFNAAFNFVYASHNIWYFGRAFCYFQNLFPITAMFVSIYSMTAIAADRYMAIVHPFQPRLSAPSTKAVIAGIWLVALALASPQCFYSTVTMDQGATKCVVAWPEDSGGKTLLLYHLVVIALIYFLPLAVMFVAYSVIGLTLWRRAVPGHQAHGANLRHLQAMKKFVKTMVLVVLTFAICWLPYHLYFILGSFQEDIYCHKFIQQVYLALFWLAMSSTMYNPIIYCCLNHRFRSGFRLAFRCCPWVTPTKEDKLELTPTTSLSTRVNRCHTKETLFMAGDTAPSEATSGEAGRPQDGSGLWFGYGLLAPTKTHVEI

Row | Compound | IC50 [1] | IC50 [2] | Ki [2] | IC50 [3] | Ki [3] | IC50 [4] | IC50 [5] | IC50 ([6]; cho) | IC50 ([6]; read-out: IC50) | Ki ([6]; read-out: Ki) | Ki [1] | Ki [4] | Ki [5] | Ki ([6]; cho) | IC50 ([3]; read-out: IC50) | IC50 ([6]; cho, read-out: IC50) | Ki ([6]; cho, read-out: Ki)
1 | COc1ccc2[nH]cc(CCNC(C)=O)c2c1 [MELATONIN] | Not Active | Not Active | Not Active | Not Active | Not Active | Not Active | Not Active | Not Active | – | – | – | – | – | – | – | – | –
2 | NC(=O)C[S+]([O-])C(c1ccccc1)c1ccccc1 (stereo not given) [MODAFINIL] | Not Active | Not Active | Not Active | Not Active | Not Active | Not Active | Not Active | Not Active | – | – | – | – | – | – | – | – | –
3 | CCN(CC)CCOCCC1=CCC2CC1C2(C)C (stereo not given) [MYRTECAINE] | Not Active | Not Active | Not Active | Not Active | Not Active | Not Active | Not Active | Not Active | – | – | – | – | – | – | – | – | –
4 | O=C(O)c1cccnc1Nc1cccc(C(F)(F)F)c1 [NIFLUMIC ACID] | Not Active | Not Active | Not Active | Not Active | Not Active | Not Active | Not Active | Not Active | – | – | – | – | – | – | – | – | –
5 | C#CC1(O)CC[C@H]2[C@@H]3CCC4=CC(=O)CC[C@@H]4[C@H]3CC[C@@]21CC (stereo not given in full) [NORGESTREL] | Not Active | Not Active | Not Active | Not Active | Not Active | Not Active | Not Active | Not Active | – | – | – | – | – | – | – | – | –
6 | COC(=O)Nc1nc2ccc([S+]([O-])c3ccccc3)cc2[nH]1 (stereo not given) [OXFENDAZOLE] | Not Active | Not Active | Not Active | Not Active | Not Active | Not Active | Not Active | Not Active | – | – | – | – | – | – | – | – | –
7 | CC(=O)O[C@H]1C(=O)[C@@]2(C)[C@H]([C@H](OC(=O)c3ccccc3)[C@]3(O)C[C@H](OC(=O)[C@H](O)[C@@H](NC(=O)c4ccccc4)c4ccccc4)C(C)=C1C3(C)C)[C@]1(OC(C)=O)CO[C@@H]1C[C@@H]2O [PACLITAXEL] | Not Active | Not Active | Not Active | Not Active | Not Active | Not Active | Not Active | – | 6.12 µM | 2.04 µM | – | – | – | – | – | – | –
8 | C[n+]1ccc(-c2cc[n+](C)cc2)cc1.[Cl-].[Cl-] [PARAQUAT DICHLORIDE] | Not Active | Not Active | Not Active | Not Active | Not Active | Not Active | Not Active | Not Active | – | – | – | – | – | – | – | – | –
9 | C[n+]1ccccc1/C=N/O.[Cl-] [PRALIDOXIME CHLORIDE] | Not Active | Not Active | Not Active | Not Active | Not Active | Not Active | Not Active | Not Active | – | – | – | – | – | – | – | – | –
10 | COc1cc2nc(N3CCN(C(=O)c4ccco4)CC3)nc(N)c2cc1OC [PRAZOSIN] | Not Active | Not Active | Not Active | Not Active | Not Active | Not Active | Not Active | Not Active | – | – | – | – | – | – | – | – | –
11 | C[C@]12C=CC(=O)C=C1CC[C@@H]1[C@@H]2[C@@H](O)C[C@@]2(C)[C@H]1CC[C@]2(O)C(=O)CO [PREDNISOLONE] | Not Active | Not Active | Not Active | Not Active | Not Active | Not Active | Not Active | Not Active | – | – | – | – | – | – | – | – | –
12 | CC(=O)[C@H]1[C@H](C#N)C[C@H]2[C@@H]3CC=C4C[C@@H](O)CC[C@]4(C)[C@H]3CC[C@@]21C [PREGNENOLONE CARBONITRILE] | Not Active | Not Active | Not Active | Not Active | Not Active | Not Active | Not Active | Not Active | – | – | – | – | – | – | – | – | –
13 | CC(C)c1cccc(C(C)C)c1O [PROPOFOL] | Not Active | Not Active | Not Active | Not Active | Not Active | Not Active | Not Active | Not Active | – | – | – | – | – | – | – | – | –
14 | Oc1cccc(O)c1O [PYROGALLOL] | Not Active | Not Active | Not Active | Not Active | Not Active | Not Active | Not Active | Not Active | – | – | – | – | – | – | – | – | –
15 | AURANOFIN | Not Active | Not Active | Not Active | Not Active | Not Active | Not Active | Not Active | Not Active | – | – | Not Active | Not Active | Not Active | Not Active | – | – | –
16 | GADOPENTETATE DIMEGLUMINE | Not Active | Not Active | Not Active | Not Active | Not Active | Not Active | Not Active | Not Active | – | – | Not Active | Not Active | Not Active | Not Active | – | – | –
17 | GENTAMICIN | Not Active | Not Active | Not Active | Not Active | Not Active | Not Active | Not Active | Not Active | – | – | Not Active | Not Active | Not Active | Not Active | – | – | –
18 | GRAMICIDIN | Not Active | Not Active | Not Active | – | – | Not Active | Not Active | – | – | – | Not Active | Not Active | Not Active | – | 5.14 µM | 4.56 µM | 1.52 µM
